15 compounds from patent publication US8258304B2, “N-aryl piperidine substituted biphenylcarboxamides” (Janssen Pharmaceutica N.V., priority 2002, dated 2012) can be followed below.

For the first data set, the system named is secretion of ApoB in HepG2 cells. As to the kind of experiment: Quantification of the secretion of ApoB. Format: cell-based. As to conditions: Homo sapiens, 24 hours of incubation with test compound, apoB immunoprecipitated from medium, read-out: pIC50 values (=−log IC50 value) (converted). As for the experimental part: HepG2 cells were cultured in 24-well plates in MEM Rega 3 containing 10% fetal calf serum. At 70% confluency, the medium was changed and the test compound or carrier (DMSO, 0.4% final concentration) was added. After 24 hours of incubation, the medium was transferred to Eppendorf tubes and cleared by centrifugation. A sheep antibody directed against either apoB was added to the supernatant and the mixture was kept at 8° C. for 24 hours. Then, rabbit anti-sheep antibody was added and the immune complex was allowed to precipitate for 24 hours at 8° C. The immunoprecipitate was pelleted by centrifugation for 25 minutes at 1320 g and washed twice with a buffer containing 40 mM Mops, 40 mM NaH2PO4, 100 mM NaF, 0.2 mM DTT, 5 mM EDTA, 5 mM EGTA, 1% Triton-X-100, 0.5% sodium deoxycholate (DOC), 0.1% SDS, 0.2 μM leupeptin and 0.2 μM PMSF. Radioactivity in the pellet was quantified by liquid scintillation counting.
Resulting IC50 values are enumerated in Table C.1.
A word on the IC50: it is the midpoint of a concentration-inhibition curve. Consider `CCNC(=O)C1CCN(c2ccc(NC(=O)c3ccccc3-c3ccc(C(C)(C)C)cc3)cc2)CC1` [Compound 6], for which the IC50 was 11.6 nM.
As to `CCOC(=O)CC1CCN(c2ccc(NC(=O)c3ccc(C)cc3-c3ccc(C(F)(F)F)cc3)cc2)CC1` [Compound 12], the IC50 is 31.4 nM.
On the same count and under the same terms, for `COC(=O)C1CCN(c2ccc(NC(=O)c3ccccc3-c3ccc(C(F)(F)F)cc3)cc2)CC1` [Compound 9] the value was 619 nM.
Still for that read-out and setting: for `CC(C)(C)c1ccc(-c2ccccc2C(=O)Nc2ccc(N3CCC(C(=O)NCc4ccccc4)CC3)cc2)cc1` [Compound 8] the value was 153 nM; for `CCOC(=O)CC1CCN(c2ccc(NC(=O)c3ccccc3-c3ccc(C(F)(F)F)cc3)cn2)CC1` [Compound 13], 89.5 nM; for `CCNC(=O)CC1CCN(c2ccc(NC(=O)c3ccccc3-c3ccc(C(F)(F)F)cc3)cc2)CC1` [Compound 5], 38.4 nM.
With `O=C(CC1CCN(c2ccc(NC(=O)c3ccccc3-c3ccc(C(F)(F)F)cc3)cc2)CC1)NCc1ccccc1` [Compound 3], the IC50 was 3.56 nM.
On the same count and under the same terms, for `CC(C)(C)c1ccc(-c2ccccc2C(=O)Nc2ccc(N3CCC(CC(=O)NCc4ccccc4)CC3)cc2)cc1` [Compound 2] the value was 6.04 nM; for `CCOC(=O)CC1CCN(c2ccc(NC(=O)c3ccc(C)cc3-c3ccc(C(F)(F)F)cc3)cn2)CC1` [Compound 15], 25.6 nM.
The same measure, in the same setting: for `COC(=O)CC1CCN(c2ccc(NC(=O)c3ccccc3-c3ccc(C(F)(F)F)cc3)cc2)CC1` [Compound 11] the value was 12.1 nM.
Still for that read-out and setting: for `O=C(Nc1ccc(N2CCC(C(=O)NCc3ccccc3)CC2)cc1)c1ccccc1-c1ccc(C(F)(F)F)cc1` [Compound 1] the value was 25.4 nM.
As for `CCNC(=O)CC1CCN(c2ccc(NC(=O)c3ccccc3-c3ccc(C(C)(C)C)cc3)cc2)CC1` [Compound 7], the IC50 was 2.39 nM.
Same read-out and setting: for `CCOC(=O)CC1CCN(c2ccc(NC(=O)c3cccc(C)c3-c3ccc(C(F)(F)F)cc3)cc2)CC1` [Compound 10] the value was 11.3 nM.
`CCNC(=O)C1CCN(c2ccc(NC(=O)c3ccccc3-c3ccc(C(F)(F)F)cc3)cc2)CC1` [Compound 4]: the IC50 was 8.02 nM.
On to `CCOC(=O)CC1CCN(c2ccc(NC(=O)c3cccc(C)c3-c3ccc(C(F)(F)F)cc3)cn2)CC1` [Compound 14], for which the IC50 is 9.29 nM.

Tested on in another data set: not given
Test: not given
Details: not given
As a reminder, the melting point is the temperature, or range, at which the solid turns liquid. For `CCOC(=O)CC1CCN(c2ccc(NC(=O)c3cccc(C)c3-c3ccc(C(F)(F)F)cc3)cn2)CC1` [Compound 14], the melting point was in the range of 134 to 137 °C.
